Assay results as given in ChEMBL document CHEMBL1150904, “Cytotoxic isoflavans from Eysenhardtia polystachya” (1998).
Converted amounts (≈) assume the structure as drawn.

Columns and labels:
KB = assay: Cytotoxicity against human KB cells after 72 hrs; assay type: functional; conditions: read-out: ED50 (the source's name)
Spodoptera frugiperda = assay: Insecticidal activity against Spodoptera frugiperda; assay type: functional

Compound: COc1cc(OC)c(-c2coc3cc(O)ccc3c2=O)cc1OC
- EC50 (KB): > 4 µg/mL

Compound: COc1cc([C@H]2COc3c(ccc(O)c3OC)C2)c(OC)c(OC)c1OC
- LC50 (Spodoptera frugiperda): >1000 ng/cm2
- EC50 (KB): 3.8 µg/mL (≈ 10.1 µM)

Compound: COc1cc([C@H]2COc3c(ccc(O)c3OC)C2)c(OC)c(O)c1OC
- LC50 (Spodoptera frugiperda): >1000 ng/cm2
- EC50 (KB): 3 µg/mL (≈ 8.28 µM)

Compound: COc1ccc2c(c1OC)OC[C@H]1c3cc4c(cc3O[C@@H]21)OCO4
- EC50 (KB): > 4 µg/mL

Compound: COc1cc2c(cc1-c1coc3cc(O)ccc3c1=O)OCO2 [CUNEATIN]
- EC50 (KB): > 4 µg/mL

Compound: COc1ccc(C2COc3c(ccc(O)c3OC)C2)c(O)c1OC (stereo not given) [ISODUARTIN]
- LC50 (Spodoptera frugiperda): >1000 ng/cm2
- EC50 (KB): 2.63 µg/mL (≈ 7.91 µM)

Compound: CC[C@H](/C=C/[C@@H](C)[C@H]1CC[C@H]2[C@@H]3CC=C4C[C@@H](O)CC[C@]4(C)[C@H]3CC[C@]12C)C(C)C [STIGMASTEROL]
- EC50 (KB): > 4 µg/mL
